This experiment has as its target T1, Dihydroorotate dehydrogenase (quinone), mitochondrial (Plasmodium falciparum (isolate 3D7), UniProt Q08210).
T1 sequence (Q08210 whole entry): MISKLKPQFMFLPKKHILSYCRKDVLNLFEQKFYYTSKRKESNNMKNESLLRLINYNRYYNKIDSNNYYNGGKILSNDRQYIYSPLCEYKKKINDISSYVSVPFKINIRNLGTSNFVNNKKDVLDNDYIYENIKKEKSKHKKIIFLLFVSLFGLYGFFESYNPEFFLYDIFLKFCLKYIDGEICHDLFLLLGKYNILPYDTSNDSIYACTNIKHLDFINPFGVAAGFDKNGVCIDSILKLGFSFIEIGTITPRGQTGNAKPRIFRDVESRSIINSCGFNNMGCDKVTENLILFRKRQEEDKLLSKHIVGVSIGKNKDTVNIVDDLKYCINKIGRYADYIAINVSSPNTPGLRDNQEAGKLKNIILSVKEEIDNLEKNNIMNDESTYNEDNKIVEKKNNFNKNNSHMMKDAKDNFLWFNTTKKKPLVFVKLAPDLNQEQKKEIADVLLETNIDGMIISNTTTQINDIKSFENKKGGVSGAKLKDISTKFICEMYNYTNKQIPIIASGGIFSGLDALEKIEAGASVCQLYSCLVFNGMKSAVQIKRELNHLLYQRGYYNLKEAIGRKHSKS
As to the kind of experiment: DHODH Inhibition Assay. The conditions noted are these: pH 8; 20 °C. As to the method:
The assays were carried out by using a colorimetric DCIP method, which uses the colorimetric reagent 2, 6-dichlorophenolindophenol as the final electron acceptor. DCIP reduction is stoichiometrically equivalent to oxidation of dihydroorotate. Changes in absorbance were quantified on a plate reader and data were analyzed to measure the reduction of DCIP as a decrease in absorbance at 600 nm.

This is an account of results in BindingDB's records for doi:10.1021/jm8001026 (University of Texas At Dallas, 2008).

Each structure is given as a SMILES string. A value given as a limit tells only on which side of the number the result lay.

With `Cc1cc(Nc2ccc(C(N)=O)cc2)n2ncnc2n1` [4-({5-methyl-[1,2,4]triazolo[1,5-a]pyrimidin-7-yl}amino)benzamide], the IC50 (in general, the midpoint of a concentration-inhibition curve) was > 200 µM.
As to `Cc1cc(Nc2ccccc2)n2ncnc2n1` [JMC521864 Compund DSM12], the IC50 is > 100 µM.
